Experimental data published in US9434763B2, “Derivatives of pyridinone as inhibitors for tissue transglutaminase” (ZEDIRA GMBH, priority 2012, dated 2016).

How the values were obtained:
[1] = biological target: T1, His tagged recombinant human tissue transglutaminase (His6-rh-TG2) (Homo sapiens, UniProt P21980); test: Inactivation of human tissue transglutaminase, fluorescence assay with Abz-APE(CAD-DNP)QEA-OH; assay type: biochemical; details: substrate Abz-APE(CAD-DNP)QEA-OH, 37° C., pH=7.5
T1 construct: purchased Zedira T002
T1 sequence (P21980 1-687): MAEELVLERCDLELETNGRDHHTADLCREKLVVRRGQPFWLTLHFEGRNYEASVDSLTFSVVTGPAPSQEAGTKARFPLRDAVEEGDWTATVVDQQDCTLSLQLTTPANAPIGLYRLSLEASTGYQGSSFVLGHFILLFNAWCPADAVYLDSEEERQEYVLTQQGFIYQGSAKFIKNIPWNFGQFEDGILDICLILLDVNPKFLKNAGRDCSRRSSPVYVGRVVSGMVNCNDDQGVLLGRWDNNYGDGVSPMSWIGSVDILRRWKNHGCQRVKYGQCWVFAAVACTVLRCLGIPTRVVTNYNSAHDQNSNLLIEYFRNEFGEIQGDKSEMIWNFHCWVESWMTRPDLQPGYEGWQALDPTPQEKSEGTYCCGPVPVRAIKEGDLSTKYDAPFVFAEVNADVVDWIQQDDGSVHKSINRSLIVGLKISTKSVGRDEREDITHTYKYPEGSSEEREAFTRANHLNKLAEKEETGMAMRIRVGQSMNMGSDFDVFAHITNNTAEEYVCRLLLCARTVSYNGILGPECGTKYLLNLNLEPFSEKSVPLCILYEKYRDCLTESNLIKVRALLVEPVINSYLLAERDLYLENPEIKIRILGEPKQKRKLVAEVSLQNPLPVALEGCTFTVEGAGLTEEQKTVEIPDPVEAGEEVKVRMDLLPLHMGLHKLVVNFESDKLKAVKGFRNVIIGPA
Outline: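 His6-rh-TG2 (10 μg per assay) was preincubated 5 min at 37 °C with inhibitor in Tris/CaCl2/PEG8000/DTT/glycine methyl ester assay solution (50 μM Abz-APE(CAD-DNP)QEA-OH), pH 7.5, DMSO <0.2%. Fluorescence (ex 313/em 418 nm) read over 15–30 min and activity taken from the slope. IC50 from activity vs log inhibitor concentration.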

[2] = tested on: Huh 7 (human hepatome-cell line); test: Cytotoxicity: metabolic activity, EZ4U-Assay, Huh 7; assay type: cell-based
Description: (§1) Huh 7 (human hepatome-cell line) and CaCo2 (human colon carcinoma-cell line) were seeded to 96 well plates in Dulbecco's Modified Eagle's Medium (DMEM)/10% fetal calf serum (FCS) and cultivated. The method is known to the skilled person.
[…] The determination of the proliferation was carried out using the Cell Proliferation ELISA, BrdU (Roche 11 647 229 001): 24 hours after incubation of the cells with the inhibitor BrdU was added. The colorimetric development of the test was made after further 48 hours according to manufacturer's information. The extinction was measured at 450 nm. For determination of the metabolic activity using the EZ4U-Assay (Biomedica B1-5000) the tetrazolium substrate was added to the cells 48 hours after addition of the inhibitor. The capacity for reaction of the cells was measured every hour over a period of 4 hours at 450 nm against a reference filter of 630 nm. DMEM without inhibitor was added as reference in both experiments, as positive control cycloheximide (2.5 μg/ml) and camptothecin (0.2 μg/ml).

[3] = tested on: CaCo2 (human colon carcinoma-cell line); test: Cytotoxicity: metabolic activity, EZ4U-Assay, CaCo2; assay type: cell-based
Description: as §1
After one hour the inhibitors A63 (ZED1227), A29 (ZED1098) and A61 (ZED1219) were added in the concentrations 0.1 μM to 1 μM. The determination of the proliferation was carried out using the Cell Proliferation ELISA, BrdU (Roche 11 647 229 001): 24 hours after incubation of the cells with the inhibitor BrdU was added. The colorimetric development of the test was made after further 48 hours according to manufacturer's information. The extinction was measured at 450 nm. For determination of the metabolic activity using the EZ4U-Assay (Biomedica B1-5000) the tetrazolium substrate was added to the cells 48 hours after addition of the inhibitor. The capacity for reaction of the cells was measured every hour over a period of 4 hours at 450 nm against a reference filter of 630 nm. DMEM without inhibitor was added as reference in both experiments, as positive control cycloheximide (2.5 μg/ml) and camptothecin (0.2 μg/ml).

Row | SMILES | IC50 [1] [µM] | effect on metabolic activity (EZ4U) [2] | effect on metabolic activity (EZ4U) [3]
1 | CCOC(=O)/C=C/CC[C@H](NC(=O)CCC(=O)O)C(=O)Nc1cccn(CC(=O)NCCC(C)C)c1=O [A24, (S,E)-4-(7-Ethoxy-1-(1-(2-(isopentylamino)-2-oxoethyl)-2-oxo-1,2-dihydropyridin-3-ylamino)-1,7-dioxohept-5-en-2-ylamino)-4-oxobutanoic acid] | 0.173 | – | –
2 | COC(=O)/C=C/CC[C@H](NC(C)=O)C(=O)Nc1cccn(CC(=O)NCCC(C)C)c1=O [A29, (S,E)-methyl 6-acetamido-7-(1-(2-(isopentylamino)-2-oxoethyl)-2-oxo-1,2-dihydropyridin-3-ylamino)-7-oxohept-2-enoate] | – | no effect | no effect
3 | CCOC(=O)/C=C/CC[C@H](NC(=O)CCC(=O)O)C(=O)Nc1cccn(CC(=O)NCC(CC)CC)c1=O [A30, (S,E)-4-(7-Ethoxy-1-(1-(2-(2-ethylbutylamino)-2-oxoethyl)-2-oxo-1,2-dihydropyridin-3-ylamino)-1,7-dioxohept-5-en-2-ylamino)-4-oxobutanoic acid] | 0.116 | – | –
4 | CCOC(=O)/C=C/CC[C@H](NC(C)=O)C(=O)Nc1cccn(CC(=O)N[C@H](C(=O)OC)[C@H](C)CC)c1=O [A35, (S,E)-ethyl 6-acetamido-7-(1-(2-((2S,3R)-1-methoxy-3-methyl-1-oxopentan-2-ylamino)-2-oxoethyl)-2-oxo-1,2-dihydropyridin-3-ylamino)-7-oxohept-2-enoate] | 0.055 | – | –
5 | CCOC(=O)/C=C/CC[C@H](NC(=O)c1cncn1C)C(=O)Nc1cccn(CC(=O)N[C@H](C(=O)O)[C@H](C)CC)c1=O [A53, (2S,3R)-2-(2-(3-((S,E)-7-Ethoxy-2-(1-methyl-1H-imidazole-5-carboxamido)-7-oxohept-5-enamido)-2-oxopyridin-1(2H)-yl)acetamido)-3-methylpentanoic acid] | 0.06 | – | –
6 | CC[C@@H](C)[C@H](NC(=O)Cn1cccc(NC(=O)[C@H](CC/C=C/C(=O)OC)NC(=O)c2cncn2C)c1=O)C(=O)O [A60, (2S,3R)-2-(2-(3-((S,E)-7-Methoxy-2-(1-methyl-1H-imidazole-5-carboxamido)-7-oxohept-5-enamido)-2-oxopyridin-1(2H)-yl)acetamido)-3-methylpentanoic acid] | 0.054 | – | –
7 | CC[C@@H](C)[C@H](NC(=O)Cn1cccc(NC(=O)[C@H](CC/C=C/C(=O)OC)NC(=O)c2ccccc2)c1=O)C(=O)O [A61, (2S,3R)-2-(2-(3-((S,E)-2-benzamido-7-methoxy-7-oxohept-5-enamido)-2-oxopyridin-1(2H)-yl)acetamido)-3-methylpentanoic acid] | – | no effect | no effect
8 | CCOC(=O)/C=C/CC[C@H](NC(C)=O)C(=O)Nc1cccn(CC(=O)NCC(CC)CC)c1=O [A62, (S,E)-Ethyl 6-acetamido-7-(1-(2-(2-ethylbutylamino)-2-oxoethyl)-2-oxo-1,2-dihydropyridin-3-ylamino)-7-oxohept-2-enoate] | 0.093 | – | –
9 | CCC(CC)CNC(=O)Cn1cccc(NC(=O)[C@H](CC/C=C/C(=O)OC)NC(=O)c2cncn2C)c1=O [A63, (S,E)-Methyl 7-(1-(2-(2-ethylbutylamino)-2-oxoethyl)-2-oxo-1,2-dihydropyridin-3-ylamino)-6-(1-methyl-1H-imidazole-5-carboxamido)-7-oxohept-2-enoate] | 0.045 | no effect | no effect
10 | COC(=O)/C=C/CC[C@H](NC(C)=O)C(=O)Nc1cccn(CC(=O)N2CCC(C(F)(F)F)CC2)c1=O [A65, (S,E)-Methyl 6-acetamido-7-oxo-7-(2-oxo-1-(2-oxo-2-(4-(trifluoromethyl)piperidin-1-yl)ethyl)-1,2-dihydropyridin-3-ylamino)hept-2-enoate] | 0.132 | – | –

More lines, in order of falling IC50 [1], values ahead:

Row | IC50 [1] [µM] | SMILES | effect on metabolic activity (EZ4U) [2] | effect on metabolic activity (EZ4U) [3]
11 | 0.147 | CCOC(=O)/C=C/CC[C@H](NC(C)=O)C(=O)Nc1cccn(CC(=O)NCCC(CC)CC)c1=O [A42, (S,E)-ethyl 6-acetamido-7-(1-(2-(3-ethylpentylamino)-2-oxoethyl)-2-oxo-1,2-dihydropyridin-3-ylamino)-7-oxohept-2-enoate] | – | –
12 | 0.141 | COC(=O)/C=C/CC[C@H](NC(C)=O)C(=O)Nc1cccn(CC(=O)N2CCCC(C)C2)c1=O (stereo partly drawn) [A64, (6S,E)-Methyl 6-acetamido-7-(1-(2-(3-methylpipendin-1-yl)-2-oxoethyl)-2-oxo-1,2-dihydropyridin-3-ylamino)-7-oxohept-2-enoate] | – | –
13 | 0.08 | CCOC(=O)/C=C/CC[C@H](NC(=O)c1cncn1C)C(=O)Nc1cccn(CC(=O)NCCC(C)C)c1=O [A19, (S,E)-Ethyl 7-(1-(2-(isopentylamino)-2-oxoethyl)-2-oxo-1,2-dihydropyridin-3-ylamino)-6-(1-methyl-1H-imidazole-5-carboxamido)-7-oxohept-2-enoate] | – | –
14 | 0.043 | CCOC(=O)/C=C/CC[C@H](NC(=O)c1ccccc1)C(=O)Nc1cccn(CC(=O)N[C@H](C(=O)O)[C@H](C)CC)c1=O [A59, (2S,3R)-2-(2-(3-((S,E)-2-Benzamido-7-ethoxy-7-oxohept-5-enamido)-2-oxopyridin-1(2H)-yl)acetamido)-3-methylpentanoic acid] | – | –
15 | 0.034 | CCC(CC)CNC(=O)Cn1cccc(NC(=O)[C@H](CC/C=C/C(=O)OC)NC(C)=O)c1=O [A79, (S,E)-Methyl 6-acetamido-7-(1-(2-(2-ethylbutylamino)-2-oxoethyl)-2-oxo-1,2-dihydropyridin-3-ylamino)-7-oxohept-2-enoate] | – | –
